Measurements taken from US10413535B2, “Pharmaceutical compositions comprising an integrin ALPHA4 antagonist for use in treating ocular inflammatory conditions” (AXEROVISION, INC., priority 2015, dated 2019).
Entries after “also recorded” stand apart in the source; their conditions may differ.

How the values were obtained:
Rat α4β1 = molecular target: T1, Rat α4β1 (Rattus norvegicus, UniProt D3ZMQ3+P49134); assay: Saturation binding assay in RBL-2H3 cells (SPA); details: [3H]GW559090, RBL-2H3 cells
T1 construct: rat RBL-2H3 cells which express rat α4β1; endogenous in cells; host or cells: RBL-2H3 cells (rat basophilic cell line)
T1 sequence (D3ZMQ3 1-1036): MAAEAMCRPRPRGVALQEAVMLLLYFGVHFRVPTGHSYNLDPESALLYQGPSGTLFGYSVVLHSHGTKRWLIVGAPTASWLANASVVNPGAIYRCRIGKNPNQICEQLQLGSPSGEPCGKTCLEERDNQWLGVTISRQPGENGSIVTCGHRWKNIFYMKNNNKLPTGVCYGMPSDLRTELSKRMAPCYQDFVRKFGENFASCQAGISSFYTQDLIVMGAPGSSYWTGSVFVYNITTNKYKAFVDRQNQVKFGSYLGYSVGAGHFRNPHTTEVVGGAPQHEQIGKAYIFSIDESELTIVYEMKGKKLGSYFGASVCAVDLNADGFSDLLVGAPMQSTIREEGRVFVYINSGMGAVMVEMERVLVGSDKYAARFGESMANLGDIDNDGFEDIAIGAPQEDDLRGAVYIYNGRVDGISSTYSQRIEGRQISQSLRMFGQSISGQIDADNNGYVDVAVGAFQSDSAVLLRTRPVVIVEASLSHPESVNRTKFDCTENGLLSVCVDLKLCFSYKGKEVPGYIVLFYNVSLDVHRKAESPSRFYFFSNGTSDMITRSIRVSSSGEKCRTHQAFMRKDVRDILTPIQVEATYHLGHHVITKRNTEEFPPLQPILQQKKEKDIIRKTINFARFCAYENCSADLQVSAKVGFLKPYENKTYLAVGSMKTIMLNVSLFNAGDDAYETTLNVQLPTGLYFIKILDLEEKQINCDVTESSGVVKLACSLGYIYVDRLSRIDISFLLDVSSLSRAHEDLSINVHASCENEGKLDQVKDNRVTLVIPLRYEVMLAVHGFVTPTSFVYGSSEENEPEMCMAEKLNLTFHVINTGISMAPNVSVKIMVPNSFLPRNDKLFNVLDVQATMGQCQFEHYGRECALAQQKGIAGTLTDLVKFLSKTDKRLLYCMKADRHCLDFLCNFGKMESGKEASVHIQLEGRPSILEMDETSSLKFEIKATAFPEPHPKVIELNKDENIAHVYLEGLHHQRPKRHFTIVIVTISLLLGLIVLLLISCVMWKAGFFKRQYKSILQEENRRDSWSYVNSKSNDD
T1 sequence (P49134 21-799): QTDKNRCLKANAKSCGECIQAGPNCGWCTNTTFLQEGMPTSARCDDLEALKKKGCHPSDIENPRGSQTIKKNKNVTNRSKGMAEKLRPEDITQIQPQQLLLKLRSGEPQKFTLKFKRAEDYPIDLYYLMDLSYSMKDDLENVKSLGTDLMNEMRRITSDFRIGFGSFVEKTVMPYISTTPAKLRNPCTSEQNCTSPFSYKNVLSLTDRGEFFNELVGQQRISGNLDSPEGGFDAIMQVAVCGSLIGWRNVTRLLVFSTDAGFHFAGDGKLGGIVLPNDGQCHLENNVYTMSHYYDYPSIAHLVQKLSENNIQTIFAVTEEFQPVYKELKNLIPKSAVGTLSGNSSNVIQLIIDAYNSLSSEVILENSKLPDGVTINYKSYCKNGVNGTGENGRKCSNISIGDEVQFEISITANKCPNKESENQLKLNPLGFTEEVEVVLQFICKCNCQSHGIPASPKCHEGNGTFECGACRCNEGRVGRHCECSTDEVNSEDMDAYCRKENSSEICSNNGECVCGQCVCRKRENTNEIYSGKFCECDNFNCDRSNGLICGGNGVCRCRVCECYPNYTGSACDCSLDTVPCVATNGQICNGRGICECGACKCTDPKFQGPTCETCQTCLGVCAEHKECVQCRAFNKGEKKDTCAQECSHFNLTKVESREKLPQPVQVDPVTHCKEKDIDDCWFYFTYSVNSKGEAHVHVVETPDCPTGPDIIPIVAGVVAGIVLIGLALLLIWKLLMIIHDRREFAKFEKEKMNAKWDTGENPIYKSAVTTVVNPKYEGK
Experimental: (§1) Jurkat J6 cells (human lymphoblast cell line) were grown as a suspension culture in RPMI 1640 supplemented with FCS (10%) and glutamine (2 mM). RPMI8866 cells (human B lymphoid cell line) were grown as a suspension culture in RPMI 1640 supplemented with FCS (10%) and glutamine (2 mM). RBL-2H3 cells (rat basophilic cell line) were cultured in Eagle's MEM plus Earles salts supplemented with 2 mM L-glutamine, 1 mM sodium pyruvate, 1× non-essential amino acids, 1 mM Na pyruvate 10% heat inactivated foetal calf serum.
The assay buffer contained 50 mM HEPES, 100 mM NaCl, 1 mM MnCl2, pH 7.5 (with NaOH). WGA SPA beads were used at 1 mg/well. Cells were harvested and resuspended in assay buffer and 1 million cells were added per well in a white bottomed plate. Cold GW559090 to give a final assay concentration of 20 μM (to define nonspecific binding) or buffer alone were added and then [3H] GW559090 across a concentration range across the plate was added (nominal [3H] GW559090 concentration range was 0.01 to 200 nM). The final assay volume was 250 μL. The plate was then incubated at 37° C. for 2 h. Disintegrations were counted by scintillation (from the WGA SPA beads) in a Wallac Microbeta plate reader.
The actual amount of [3H] GW559090 added for each concentration of the saturation curve was measured by counting disintegrations per minute from a 50 μL aliquot of the label dilution range.

[1] = tested on: C57BL/6 mice subjected to desiccating stress; assay: Corneal OGD staining in murine desiccating stress model; assay type: in vivo, mouse
Experimental: Female C57BL/6 mice, aged 6 to 8 weeks, were subjected to DS for 5 days (DS5) as described previously (de Paiva et al., 2006b; Niederkorn et al., 2006). Topical bilateral treatment with 1 eye drop per eye (2 μL volume) or subcutaneous injection (4 μL volume), 2 times per day, was initiated on day 1 concurrently with DS and continued through day 4. Treatment with the compound of formula I or dexamethasone phosphate 0.1% was compared to correspondingly treated vehicle controls. Mice were randomized to receive one of the test articles. Control mice were kept in a non-stressed (NS) environment maintained at 50-75% relative humidity without exposure to airflow or scopolamine and were not treated with test or control article. Treatment effects were assessed on corneal staining with Oregon Green Dextran (OGD); expression of inflammatory markers in ocular surface tissues by real time PCR; cell population analysis in draining cervical lymph nodes by FACS analysis; conjunctival T cell infiltration by immunohistochemistry.
On the morning of the 5th day, mice received one s.c. dose of scopolamine. Two hours later corneal staining was assessed using Oregon Green Dextran (OGD-488), which is a conjugated fluorescent dye of a 70 kDa molecular size (Invitrogen-Molecular Probes) as previously described (de Paiva et al., 2006b). The procedure consisted of instillation of 0.5 μL of OGD on the cornea using a glass capillary pipette, 1 minute before euthanasia. Mice were euthanized by inhalation of isoflurane gas followed by cervical dislocation. Eyes were then rinsed with 2 mL of BSS. Excess liquid was carefully blotted from the ocular surface with filter papers without touching the cornea. Digital pictures of both eyes were taken under 470 nm excitation and 488 nm emission wave lengths using a Nikon SMZ-1500 stereo microscope, with an exposure time of 2 seconds. Both eyes from each animal were evaluated; the right eye always first followed by the left eye. The mean intensity in the central cornea was evaluated from digital images using NIS Elements (version 3.0) by placing a fixed region of interest (a 2-mm diameter circle) on the central cornea. The mean intensity of the fluorescence was read by the software and stored in a database (Excel, Microsoft). This fluorescence measurement in the central ring was done independently by 2 masked observers, for each mouse eye. By the conclusion of the experiment, results were averaged from both observers using all data collected during all study weeks (Excel, Microsoft). Results are presented as geometric mean±95% confidence interval of gray levels.
Due to skewed distribution of OGD data, the analysis was done on the log 10 scale to make the data more normally distributed. Log 10 OGD data was averaged across two observers and the left and right eyes. The mixed effects ANOVA model included treatment group as a fixed effect and week as a random effect. 95% and 99% confidence intervals were constructed for the disease (5 day DS vs untreated group kept in separate vivarium) and compound treatment effects (treatment vs vehicle). As these comparisons were all pre-planned (comparing each treatment to its vehicle group), no adjustment was made for multiplicity. […] T cell density was calculated for each section and averaged across sections for each animal. […]

Human α4β1 = molecular target: T2, Human α4β1 (Homo sapiens, UniProt P05556+P13612); assay: J6 saturation binding assay (filtration) with [3H]GW559090; details: [3H]GW559090, J6 cells; geometric mean and 95% CL, 4 experiments
T2 construct: characterized in human J6 cells which express VLA-4; endogenous in cells; host or cells: Jurkat J6 cells (human lymphoblast cell line)
T2 sequence (P13612 34-1032): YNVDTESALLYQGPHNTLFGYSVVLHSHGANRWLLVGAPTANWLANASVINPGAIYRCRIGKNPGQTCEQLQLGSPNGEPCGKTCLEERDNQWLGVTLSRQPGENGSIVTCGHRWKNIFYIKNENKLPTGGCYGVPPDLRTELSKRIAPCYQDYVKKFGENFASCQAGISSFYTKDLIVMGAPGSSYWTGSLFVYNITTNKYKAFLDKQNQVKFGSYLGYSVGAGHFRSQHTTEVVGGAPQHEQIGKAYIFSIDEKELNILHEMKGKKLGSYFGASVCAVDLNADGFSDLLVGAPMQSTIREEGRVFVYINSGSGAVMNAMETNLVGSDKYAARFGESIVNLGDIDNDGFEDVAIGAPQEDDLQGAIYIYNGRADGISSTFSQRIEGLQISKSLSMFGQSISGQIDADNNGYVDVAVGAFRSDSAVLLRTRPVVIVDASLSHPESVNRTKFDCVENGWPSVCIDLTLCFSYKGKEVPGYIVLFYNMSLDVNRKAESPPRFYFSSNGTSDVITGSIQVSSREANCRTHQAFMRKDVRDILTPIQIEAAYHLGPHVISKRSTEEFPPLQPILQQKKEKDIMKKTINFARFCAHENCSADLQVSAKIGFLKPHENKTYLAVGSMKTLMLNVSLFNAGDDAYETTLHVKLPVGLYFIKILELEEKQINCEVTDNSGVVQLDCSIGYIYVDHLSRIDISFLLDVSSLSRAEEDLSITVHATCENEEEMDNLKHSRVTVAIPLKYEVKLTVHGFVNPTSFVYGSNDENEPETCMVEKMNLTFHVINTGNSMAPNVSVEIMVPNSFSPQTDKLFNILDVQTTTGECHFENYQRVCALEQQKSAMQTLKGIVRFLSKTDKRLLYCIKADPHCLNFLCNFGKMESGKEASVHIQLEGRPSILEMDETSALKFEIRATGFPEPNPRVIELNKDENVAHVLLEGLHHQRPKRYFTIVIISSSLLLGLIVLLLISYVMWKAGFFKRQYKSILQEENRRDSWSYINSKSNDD
T2 sequence (P05556 21-798): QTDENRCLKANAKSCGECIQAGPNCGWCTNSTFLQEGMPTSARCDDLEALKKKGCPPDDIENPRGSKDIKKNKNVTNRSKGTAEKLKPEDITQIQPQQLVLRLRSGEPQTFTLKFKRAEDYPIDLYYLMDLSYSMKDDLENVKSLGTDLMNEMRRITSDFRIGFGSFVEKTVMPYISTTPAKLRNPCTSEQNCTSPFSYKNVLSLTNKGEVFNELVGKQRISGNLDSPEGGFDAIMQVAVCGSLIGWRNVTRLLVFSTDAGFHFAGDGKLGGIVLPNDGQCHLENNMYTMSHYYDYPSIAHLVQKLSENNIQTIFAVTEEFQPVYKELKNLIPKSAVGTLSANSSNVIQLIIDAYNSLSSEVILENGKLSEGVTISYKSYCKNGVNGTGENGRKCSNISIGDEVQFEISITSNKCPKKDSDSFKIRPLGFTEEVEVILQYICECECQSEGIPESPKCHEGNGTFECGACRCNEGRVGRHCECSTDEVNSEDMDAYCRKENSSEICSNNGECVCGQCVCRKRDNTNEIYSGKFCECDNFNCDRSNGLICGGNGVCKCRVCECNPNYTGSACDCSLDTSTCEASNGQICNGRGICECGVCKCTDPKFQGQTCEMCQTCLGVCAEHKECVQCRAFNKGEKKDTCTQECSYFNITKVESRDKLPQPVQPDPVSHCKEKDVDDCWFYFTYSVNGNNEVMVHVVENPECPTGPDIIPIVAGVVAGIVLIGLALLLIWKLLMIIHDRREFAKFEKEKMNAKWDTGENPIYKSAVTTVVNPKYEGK
Experimental: as §1
Binding of the compound of formula I was characterized in human J6 cells which express VLA-4. J6 cells were harvested by centrifugation for 5 minutes at 500 g and resuspended in assay buffer (50 mM HEPES, pH 7.5, 100 mM NaCl, 2 mM glucose, 1 mM MnCl2). Each well contained 1×10^6 cells and either 10 μM cold GW559090, to define the NSBs (non-specific binding), or buffer. […] Bound [3H]GW559090 was separated from free by rapid vacuum filtration through pre-soaked Whatman GF/B filters, followed by three washes in ice-cold buffer, scintillant was then added to filter discs and disintegrations per minute measured on a Beckman Scintillation counter. […] GW559090 added for each concentration of the saturation curve was measured by counting disintegrations from a 50 μL aliquot of the label dilution range.

Cc1ccccc1OCC(=O)N[C@@H](CC(C)C)C(=O)N[C@@H](Cc1ccc(OC(=O)N2CCC(C(N)=O)CC2)cc1)C(=O)O [GW559090, (2S)-3-[4-({[4-(Aminocarbonyl)-1-piperidinyl]carbonyl}oxy)phenyl]-2-[((2S)-4-methyl-2-{[2-(2-methylphenoxy)acetyl]amino}pentanoyl)amino]propanoic acid]
Kd (Rat α4β1): 1.04 nM
OGD intensity score (corneal barrier disruption) ([1]; subcutaneous 120 μg 2 times per day, 5 days DS): not observed
OGD intensity score (corneal staining / corneal barrier disruption) ([1]; topical bilateral 2 times per day, 5 days DS, vs vehicle (GW559090 1-30 mg/mL; Dex 0.1%), listed as compound of formula I): significant decrease; also recorded: significantly decreased; also recorded: dose-dependently prevents
Most efficacious concentration on OGD intensity score ([1]; topical, 1 to 30 mg/mL investigated): 30 mg/mL
Kd (Human α4β1): 0.19 nM
